# Data published in patent publication US20210309669A1, “Heterocyclic Spiro Compounds As MAGL Inhibitors” (Pfizer Inc., priority 2018, published 2021).
# Where two headings read alike, the source gives them in different places.
# Legend:
# [1] = molecular target: T1, human recombinant Monoacylglycerol Lipase (Homo sapiens, UniProt Q99685); assay: MAGL inhibition enzymatic assay (7-HCA fluorogenic substrate); format: biochemical; details: geometric mean
# T1 sequence (Q99685 1-303): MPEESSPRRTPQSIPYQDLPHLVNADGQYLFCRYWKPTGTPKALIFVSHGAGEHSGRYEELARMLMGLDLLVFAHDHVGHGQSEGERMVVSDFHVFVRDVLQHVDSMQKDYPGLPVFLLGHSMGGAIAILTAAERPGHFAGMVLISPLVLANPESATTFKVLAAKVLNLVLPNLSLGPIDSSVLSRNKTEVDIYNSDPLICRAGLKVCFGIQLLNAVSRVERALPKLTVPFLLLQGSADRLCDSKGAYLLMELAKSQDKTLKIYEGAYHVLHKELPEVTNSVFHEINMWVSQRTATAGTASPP
# Procedure: Assessment of MAGL inhibition utilizes human recombinant Monoacylglycerol Lipase and the fluorogenic substrate 7-hydroxycoumarinyl arachidonate (7-HCA, Biomol ST-502). 400 nL of a test compound at decreasing concentration (ranging from 150 μM down to 1.5 nM) was spotted into a 384-well back plate (PerkinElmer, 6007279) using a Labcyte Echo, followed by addition of 10 μL of MAGL enzyme in assay buffer (50 mM HEPES, pH 7.4, 100 mM NaCl, 5 mM MgCl2, 0.1% Triton X-100 and 25% glycerin). An equal volume of 7-HCA in assay buffer with 10% DMSO was added either immediately (T=0 min) or after a 30 minute incubation (T=30 min) to initiate the reaction. The final concentration of MAGL enzyme was […] and 7-HCA substrate was 5 μM. After these dilutions, the final concentration of the test compound ranged from 3 μM to 0.03 nM. The reaction was allowed to progress for 60 minutes, after which the plate was read at an Ex/Em of 340/465. Percent inhibitions were calculated based on control wells containing no compound (0% inhibition) and a control compound (e.g., a MAGL inhibitor whose activity is known or was previously reported in the literature, such as one with about 100% inhibition). IC50 values were generated based on a four parameter fit model using ABASE software from IDBS. See e.g., Wang, Y. et al., “A Fluorescence-Based Assay for Monoacylglycerol Lipase Compatible with Inhibitor Screening,” Assay and Drug Development Technologies, 2008, Vol. 6 (3) pp 387-393 (reporting an assay for measuring MAGL activity).
# human recombinant FAAH = molecular target: T2, human recombinant FAAH (Homo sapiens, UniProt O00519); assay: FAAH inhibition enzymatic assay (Arachidonoyl-AMC substrate); format: biochemical; details: 30 minute incubation; geometric mean; read-out: FAAH (T = 30 min) IC50
# T2 construct: purchased Cayman 10010183
# T2 sequence (O00519 1-579): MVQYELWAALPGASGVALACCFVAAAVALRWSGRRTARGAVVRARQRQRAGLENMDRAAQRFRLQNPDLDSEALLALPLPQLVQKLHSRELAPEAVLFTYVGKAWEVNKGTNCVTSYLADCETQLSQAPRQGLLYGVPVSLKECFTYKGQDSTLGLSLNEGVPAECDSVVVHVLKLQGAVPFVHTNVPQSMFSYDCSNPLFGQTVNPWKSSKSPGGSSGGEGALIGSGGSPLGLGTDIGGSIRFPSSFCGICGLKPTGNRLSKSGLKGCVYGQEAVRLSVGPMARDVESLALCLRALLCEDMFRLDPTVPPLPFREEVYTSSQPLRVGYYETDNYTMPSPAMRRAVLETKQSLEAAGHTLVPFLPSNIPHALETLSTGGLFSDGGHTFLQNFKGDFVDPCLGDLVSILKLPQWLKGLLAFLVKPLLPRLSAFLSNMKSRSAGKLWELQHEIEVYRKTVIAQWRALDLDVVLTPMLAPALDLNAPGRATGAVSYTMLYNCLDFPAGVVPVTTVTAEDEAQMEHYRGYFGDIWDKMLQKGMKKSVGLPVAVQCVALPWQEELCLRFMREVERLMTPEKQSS
# Procedure: Assessment of FAAH inhibition utilizes human recombinant FAAH and the fluorescent substrate, Arachidonoyl-AMC. 400 nL of a test compound at decreasing concentrations was spotted into a 384-well back plate (PerkinElmer, 6007279) using a Labcyte Echo, followed by addition of 10 μl of FAAH enzyme (Cayman 10010183) in assay buffer (50 mM Tris, pH 9.0, 1 mM EDTA, i.e. ethylenediaminetetraacetic acid). After a 30 minute incubation at room temperature, 10 μL of Arachidonyl-AMCA was added in assay buffer with 16% DMSO. […] The reaction was allowed to progress for 60 minutes, after which the plate was read on a Molecular Devices FlexStation reader at an Ex/Em of 355/460. Percent inhibitions were calculated based on controls wells containing either no compound (0% inhibition) or a control compound (e.g., an FAAH inhibitor whose activity is known or was previously reported in the literature, such as one with about 100% inhibition). IC50 values were generated based on a four parameter fit model using ABASE software from IDBS.
# [2] = In vitro intrinsic clearance in human liver microsomes (HLM); format: in vitro ADME; details: pH 7.4, 1 μM substrate, NADPH, 37° C., read-out: HLM CLint, app
# Procedure: Test Compounds (Example 1-3 and Comparative-Compounds 1-4) were prepared as solutions in DMSO. The final concentration of DMSO in the incubation was <0.1% (v/v). […] (all final concentrations) in a 384-well plate. The reaction mixture was pre-warmed at 37° C. for 10 min prior to initiation of the incubation. The incubation was quenched with acetonitrile containing internal standards at the following time points: 1, 4, 7, 12, 20, 25, 45, and 60 min (individual incubation plates per time point) with a subsequent addition of water. The samples were vortexed followed by centrifugation and the supernatant was analyzed by LC/MS-MS using multiple reaction monitoring. For control experiments, NADPH was omitted from the incubations.
# The microsomal t½ (min) was obtained from a log-linear plot of the substrate depletion versus incubation time and was scaled to hepatic intrinsic clearance (CLint,app (μL/min/mg protein) using the following equation: […]
# [3] = 30 minute incubation before substrate, read-out: MAGL (T = 30 min) IC50
# [4] = substrate added immediately (T=0 min), read-out: MAGL (T = 0 min) IC50
Structure (SMILES),"IC50 [1, 3]","IC50 [1, 4]",IC50 (human recombinant FAAH),microsomal CLint at 1 μM [2]
"O=C(OC(C(F)(F)F)C(F)(F)F)N1CCC2(CC1)C[C@@H](NS(=O)(=O)CC1CC1)CO2 [Example 1, 1,1,1,3,3,3-Hexafluoropropan-2-yl (3R)-3-{[(cyclopropylmethyl)sulfonyl]amino}-1-oxa-8-azaspiro[4.5]decane-8-carboxylate]",27.6 nM,292 nM,> 30000 nM,< 8 µL/min/mg
"O=C(OC(C(F)(F)F)C(F)(F)F)N1CCC2(CC1)C[C@@H](NS(=O)(=O)C1CC1)CO2 [Example 2, 1,1,1,3,3,3-Hexafluoropropan-2-yl (3R)-3-[(cyclopropylsulfonyl)amino]-1-oxa-8-azaspiro[4.5]decane-8-carboxylate]",34.7 nM,369 nM,> 30000 nM,< 8 µL/min/mg
"O=C(OC(C(F)(F)F)C(F)(F)F)N1CCC2(CCC(NS(=O)(=O)CC3CC3)CO2)CC1 (stereo not drawn) [Example 3, 1,1,1,3,3,3-Hexafluoropropan-2-yl 3-{[(cyclopropylmethyl)sulfonyl]amino}-1-oxa-9-azaspiro[5.5]undecane-9-carboxylate]",28.5 nM,298 nM,> 30000 nM,< 8 µL/min/mg
